Each block holds one molecule with its values, some of them ahead of it. Non-standard residues stand in square brackets, D forms with d. No end group written: not given here. pY = N[C@@H](Cc1ccc(OP(=O)(O)O)cc1)C(=O)O
Experiments:
[1] = pH 7.4
[2] = molecular target: T1, p120RasGAP N-terminal SH2 domain (residues 174-280, C236S, C261S) (UniProt P20936 174-280, C236S | C261S); assay: co-crystallisation
T1 sequence (looked up): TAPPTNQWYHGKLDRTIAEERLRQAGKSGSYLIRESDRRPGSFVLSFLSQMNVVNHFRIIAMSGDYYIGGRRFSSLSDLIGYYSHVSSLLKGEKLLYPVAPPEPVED

Maximum Solubility [1]: 10000 µg/mL
Molecule: D[pY]AEPMDA [pY-1087]

binding result [2]: binds
B1: p190RhoGAP pTyr-1105 phosphopeptide (residues 1100-1112) (peptide)
peptide: Ac-EEENI[pY]SVPHDST-NH2
SMILES: CC[C@H](C)[C@H](NC(=O)[C@H](CC(N)=O)NC(=O)[C@H](CCC(=O)O)NC(=O)[C@H](CCC(=O)O)NC(=O)[C@H](CCC(=O)O)NC(C)=O)C(=O)N[C@@H](Cc1ccc(OP(=O)(O)O)cc1)C(=O)N[C@@H](CO)C(=O)N[C@H](C(=O)N1CCC[C@H]1C(=O)N[C@@H](Cc1c[nH]cn1)C(=O)N[C@@H](CC(=O)O)C(=O)N[C@@H](CO)C(=O)N[C@H](C(N)=O)[C@@H](C)O)C(C)C

Reference: article PMC11059313 (Methods in molecular biology (Clifton, N.J.), 2023)
